Results reported in ChEMBL document CHEMBL5260805, “Therapeutic journey of 2,4-thiazolidinediones as a versatile scaffold: An insight into structure activity relationship” (Eur J Med Chem, 2017).
≈ marks a conversion by molar mass, not a printed value.

How the values were obtained:
Rattus norvegicus [1] = species on record: Rattus norvegicus; assay: Antidiabetic activity in Wistar rat assessed as reduction in blood glucose level after 120 mins; type: functional; conditions: 2 h
Mus musculus [2] = assay: Hypoglycemic activity in db/db mouse assessed as reduction in blood glucose level at 10 mg/kg; type: functional; design: scale not given: the % may be the effect or the level left
Mus musculus [3] = assay: Hypolipidemic activity in db/db mouse assessed as reduction in triglyceride level at 10 mg/kg; type: functional; design: scale not given: the % may be the effect or the level left
Escherichia coli [4] = assay: Antibacterial activity against Escherichia coli ATCC 25922; type: functional
Pseudomonas aeruginosa [5] = assay: Antibacterial activity against Pseudomonas aeruginosa […]; type: functional
Aspergillus niger [6] = assay: […] activity against Aspergillus niger ATCC-9029; type: functional
Aspergillus fumigatus = assay: […] activity against Aspergillus fumigatus ATCC-46645; type: functional
Staphylococcus aureus [7] = assay: Antibacterial activity against Staphylococcus aureus ATCC 9144; type: functional
[8] = tested on: Staphylococcus epidermidis; assay: Antibacterial activity against Staphylococcus epidermidis ATCC-155; type: functional
Bacillus subtilis = assay: Antibacterial activity against Bacillus subtilis; type: functional
Pseudomonas aeruginosa [9] = assay: Antibacterial activity against Pseudomonas aeruginosa; type: functional
Salmonella typhimurium = assay: Antibacterial activity against Salmonella typhimurium; type: functional, Salmonella enterica subsp. enterica serovar Typhimurium; conditions: Salmonella enterica
Staphylococcus aureus [10] = assay: Antibacterial activity against Staphylococcus aureus; type: functional
Aspergillus niger [11] = assay: Antifungal activity against Aspergillus niger; type: functional
Candida albicans = assay: Antifungal activity against Candida albicans; type: functional
Escherichia coli [12] = assay: Antibacterial activity against Escherichia coli; type: functional
[13] = biological target: Human immunodeficiency virus type 1 reverse transcriptase (Human immunodeficiency virus 1, UniProt Q72547); assay: Inhibition of HIV-1 reverse transcriptase
[14] = biological target: Human immunodeficiency virus type 1 reverse transcriptase (Human immunodeficiency virus 1) (UniProt Q72547); assay: Inhibition of HIV-1 reverse transcriptase relative to control; conditions: concentration not given here
Klebsiella pneumoniae = assay: Antibacterial activity against Klebsiella pneumoniae; type: functional
Mus musculus [15] = species on record: Mus musculus; assay: Antihyperglycemic activity in sucrose loaded mouse model assessed as decrease in blood glucose level; type: functional; design: scale not given: the % may be the effect or the level left
[16] = biological target: Xanthine dehydrogenase/oxidase (Homo sapiens, UniProt P47989); assay: Inhibition of human milk xanthine oxidase relative to control
Rattus norvegicus [17] = species on record: Rattus norvegicus; assay: Antidiabetic activity in Wistar rat assessed as increase in glucose uptake in absence of insulin after 45 mins; type: functional; conditions: 0.75 h
Rattus norvegicus [18] = species on record: Rattus norvegicus; assay: Antidiabetic activity in Wistar rat assessed as increase in glucose uptake in presence of insulin after 45 mins; type: functional; conditions: 0.75 h
Mus musculus [19] = species on record: Mus musculus; assay: Hypolipidemic activity in KKAY mouse assessed as reduction in triglyceride level; type: functional
Mus musculus [20] = species on record: Mus musculus; assay: Hypoglycemic activity in KKAY mouse assessed as reduction in blood glucose level; type: functional
Pichia kudriavzevii = assay: Antifungal activity against Candida krusei; type: functional
Nakaseomyces glabratus = assay: Antifungal activity against Candida glabrata; type: functional
Candida parapsilosis = assay: Antifungal activity against Candida parapsilosis; type: functional; conditions: Lodderomyces parapsilosis
[21] = biological target: Peroxisome proliferator-activated receptor gamma (Homo sapiens) (UniProt P37231); assay: Agonist activity at PPARgamma (unknown origin) assessed as fold increase at 10 uM by luciferase reporter gene assay; conditions: filed as agonist
[22] = biological target: Hexokinase-4 (Homo sapiens) (UniProt P35557); assay: Agonist activity at glucokinase (unknown origin) assessed as fold increase at 10 uM by luciferase reporter gene assay; conditions: filed as agonist
Mus musculus [23] = assay: Hypolipidemic activity in C57BL/6J db/db mouse assessed as reduction in triglyceride level at 200 mg/kg; type: functional; design: scale not given: the % may be the effect or the level left
Mus musculus [24] = assay: Hypoglycemic activity in C57BL/6J db/db mouse assessed as reduction in blood glucose level at 50 mg/kg after 3 days; type: functional; design: scale not given: the % may be the effect or the level left; conditions: time 3 day
Rattus norvegicus [25] = species on record: Rattus norvegicus; assay: Hypolipidemic activity in alloxan induced diabetic rat model assessed as increase in HDL/LDL ratio; type: functional
Rattus norvegicus [26] = species on record: Rattus norvegicus; assay: Hypolipidemic activity in alloxan induced diabetic rat model assessed as increase in HDL; type: functional
[27] = Inhibition of bacterial peptide deformylase; design: species or system Bacteria
Mus musculus [28] = assay: Hypolipidemic activity in db/db mouse assessed as reduction in triglyceride level at 30 mg/kg/day, po administered for 6 days; type: functional; design: scale not given: the % may be the effect or the level left; conditions: time 6 day
Mus musculus [29] = assay: Hypoglycemic activity in db/db mouse assessed as reduction in blood glucose level at 30 mg/kg/day, po administered for 6 days; type: functional; design: scale not given: the % may be the effect or the level left; conditions: time 6 day
[30] = biological target: Peroxisome proliferator-activated receptor gamma (Homo sapiens, UniProt P37231); assay: Agonist activity at human PPARgamma transfected in HEK293 cells assessed increase in luciferase activity incubated for 24 hrs; type: cell-based
[31] = Inhibition of bovine lens ALR2; type: tissue-based, Bos taurus
RAW264.7 = assay: Inhibition of LPS-induced NO production in mouse RAW264.7 cells; type: functional
[32] = biological target: Peroxisome proliferator-activated receptor gamma (Homo sapiens) (UniProt P37231); assay: Transactivation of PPARgamma (unknown origin) expressed in HEK293 cells at 10 uM after 24 hrs by luminometer assay; type: cell-based; conditions: filed as activator
Mus musculus [33] = assay: Hypoglycemic activity in db/db mouse assessed as reduction in blood glucose level at 100 mg/kg/day; type: functional
[34] = Bacillus subtilis, read-out: MIC

Structure (SMILES): CCc1ccc(CCOc2ccc(CC3SC(=O)NC3=O)cc2)nc1 (stereo unspecified) [PIOGLITAZONE]
- Activity (Rattus norvegicus [1]): 115 mg/dL
- Activity (Mus musculus [2]): 46.2%
- Activity (Mus musculus [3]): 46.9%

Structure (SMILES): COC(=O)CN1C(=O)S/C(=C\c2cn(CC(=O)OC)cn2)C1=O
- MIC (Escherichia coli [4]): 1.6 µg/mL (≈ 4.72 µM)
- MIC (Pseudomonas aeruginosa [5]): 2.8 µg/mL (≈ 8.25 µM)
- MIC (Aspergillus niger [6]): 7.9 µg/mL (≈ 23.3 µM)
- MIC (Aspergillus fumigatus): 1.7 µg/mL (≈ 5.01 µM)
- MIC (Staphylococcus aureus [7]): 3.8 µg/mL (≈ 11.2 µM)
- MIC [8]: 2.2 µg/mL (≈ 6.48 µM)

Structure (SMILES): O=C(O)c1cn(C2CC2)c2cc(N3CCNCC3)c(F)cc2c1=O [CIPROFLOXACIN]
- MIC (Bacillus subtilis; [34]): 0.78 µg/mL (≈ 2.35 µM)
- MIC (Pseudomonas aeruginosa [9]): 0.78 µg/mL (≈ 2.35 µM)
- MIC (Salmonella typhimurium): 0.78 µg/mL (≈ 2.35 µM)
- MIC (Staphylococcus aureus [10]): 0.78 µg/mL (≈ 2.35 µM)

Structure (SMILES): OC(Cn1cncn1)(Cn1cncn1)c1ccc(F)cc1F [FLUCONAZOLE]
- MIC (Aspergillus niger [11]): 12.5 µg/mL (≈ 40.8 µM)
- MIC (Candida albicans): 12.5 µg/mL (≈ 40.8 µM)

Structure (SMILES): Cc1ccc(C)c(/C=C2\SC(=O)N(CCC(=O)Nc3ccccc3O)C2=O)c1
- MIC (Bacillus subtilis; [34]): 6.25 µg/mL (≈ 15.8 µM)
- MIC (Pseudomonas aeruginosa [9]): 6.25 µg/mL (≈ 15.8 µM)
- MIC (Escherichia coli [12]): 6.25 µg/mL (≈ 15.8 µM)
- IC50 [13]: 1310 nM
- MIC (Salmonella typhimurium): 6.25 µg/mL (≈ 15.8 µM)
- inhibition [14]: 73%
- MIC (Klebsiella pneumoniae): 6.25 µg/mL (≈ 15.8 µM)
- MIC (Aspergillus niger [11]): 25 µg/mL (≈ 63.1 µM)
- MIC (Candida albicans): 12.5 µg/mL (≈ 31.5 µM)

Structure (SMILES): CCOC(=O)CN1C(=O)SC(Cc2ccc(OC(C)=O)cc2)C1=O (stereo unspecified)
- Activity (Mus musculus [15]): -26.8%

Structure (SMILES): CCc1ccc(CCOc2ccc(CC3SC(=O)N(CCCCCCC#N)C3=O)cc2)nc1 (stereo unspecified)
- inhibition (INH) [16]: 72%

Structure (SMILES): O=C(CN1C(=O)S/C(=C\c2ccc(Br)cc2)C1=O)Nc1ccc(C(=O)O)cc1
- Activity (Rattus norvegicus [17]): 34.71 mg/dL
- Activity (Rattus norvegicus [18]): 47.65 mg/dL

Structure (SMILES): CN(C)C(=N)NC(=N)N [METFORMIN]
- Activity (Mus musculus [15]): -34.1%

Structure (SMILES): CN(CCOc1ccc(CC2SC(=O)NC2=O)cc1)c1cc(-c2ccccc2)ccn1 (stereo unspecified)
- ED25 (Mus musculus [19]): 2.5 mg/kg/day
- ED25 (Mus musculus [20]): 0.02 mg/kg/day

Structure (SMILES): O=C(CN1C(=O)S/C(=C\c2cccc(-c3cc(=O)c4ccccc4o3)c2)C1=O)c1ccc([N+](=O)[O-])cc1
- MIC (Pichia kudriavzevii): 6.25 µg/mL (≈ 12.2 µM)
- MIC (Nakaseomyces glabratus): 6.25 µg/mL (≈ 12.2 µM)
- MIC (Candida parapsilosis): 6.25 µg/mL (≈ 12.2 µM)
- MIC (Candida albicans): 6.25 µg/mL (≈ 12.2 µM)

Structure (SMILES): CC(C)OC(=O)c1ccc(NC(=O)Cc2ccc(/C=C3\SC(=O)NC3=O)cc2[N+](=O)[O-])nc1
- Activity [21]: 48%
- fold change (FC) [22]: 2.9

Structure (SMILES): O=C1NC(=O)C(Cc2ccc(OCCn3ccc4ccccc43)cc2)S1 (stereo unspecified)
- Activity (Mus musculus [23]): 77%
- Activity (Mus musculus [24]): 60%

Structure (SMILES): CC1(C)S[C@@H]2[C@H](NC(=O)[C@H](N)c3ccccc3)C(=O)N2[C@H]1C(=O)O [AMPICILLIN]
- MIC (Escherichia coli [12]): 100 µg/mL (≈ 286 µM)
- MIC (Candida albicans): 500 µg/mL (≈ 1430 µM)

Structure (SMILES): CN(CCOc1ccc(CC2SC(=O)NC2=O)cc1)Cc1nc(N2CCOCC2)nc(N2CCOCC2)n1 (stereo unspecified)
- Ratio (Rattus norvegicus [25]): 4.02
- Activity (Rattus norvegicus [26]): 3.16%

Structure (SMILES): COc1cc(/C=C2\SC(=O)N(CC(=O)O)C2=O)cc(OC)c1OC
- Activity (Rattus norvegicus [1]): 104 mg/dL

Structure (SMILES): N#Cc1ccccc1-c1ccc(CN2C(=O)S/C(=C\c3c(Cl)cccc3Cl)C2=O)cc1
- MIC (Bacillus subtilis): 100 µg/mL (≈ 215 µM)
- MIC (Bacillus subtilis; [34]): 63.6 µg/mL (≈ 137 µM)
- MIC (Escherichia coli [12]): 63.6 µg/mL (≈ 137 µM)
- IC50 [27]: 132000 nM

Structure (SMILES): CCc1nc(C)cc(=O)n1CCOc1ccc(CC2SC(=O)NC2=O)cc1 (stereo unspecified)
- Activity (Mus musculus [28]): 85%
- Activity (Mus musculus [29]): 73%

Structure (SMILES): COC(=O)/C(=C\c1cc(OC)cc(OC)c1)c1ccc(Oc2ccc(CC3SC(=O)NC3=O)cc2)cc1 (stereo unspecified)
- EC50 [30]: 284 nM

Structure (SMILES): Cc1nn(COc2ccc(CC3SC(=O)NC3=O)cc2)c(=O)c2ccccc12 (stereo unspecified)
- Activity (Mus musculus [2]): 72%
- Activity (Mus musculus [3]): 68%

Structure (SMILES): O=C(O)CN1C(=O)S/C(=C\c2cccc(Oc3ccccc3)c2)C1=O
- IC50 [31]: 130 nM

Structure (SMILES): CCOC(=O)CN1C(=O)SC(Cc2ccc(O)cc2)C1=O (stereo unspecified)
- Activity (Mus musculus [15]): -26.7%

Structure (SMILES): O=C(CN1C(=O)S/C(=C\c2cccc(-c3cc(=O)c4ccccc4o3)c2)C1=O)c1ccc(F)cc1
- MIC (Pichia kudriavzevii): 6.25 µg/mL (≈ 12.9 µM)
- MIC (Nakaseomyces glabratus): 6.25 µg/mL (≈ 12.9 µM)
- MIC (Candida parapsilosis): 6.25 µg/mL (≈ 12.9 µM)
- MIC (Candida albicans): 6.25 µg/mL (≈ 12.9 µM)

Structure (SMILES): CC(C)c1ccc(N(C)CCOc2ccc(CC3SC(=O)NC3=O)cc2)cc1 (stereo unspecified)
- inhibition (INH) (RAW264.7): 51.5%

Structure (SMILES): COc1cc(Br)cc(CC2SC(=O)NC2=O)c1CC(=O)O (stereo unspecified)
- Activity [32]: 65%

Structure (SMILES): CN(CCOc1ccc(CC2SC(=O)NC2=O)cc1)c1ccccn1 (stereo unspecified) [ROSIGLITAZONE]
- Activity (Rattus norvegicus [17]): 36 mg/dL
- ED25 (Mus musculus [19]): > 30 mg/kg/day
- Activity (Mus musculus [15]): -11.6%
- Activity (Mus musculus [28]): 41%
- ED25 (Mus musculus [20]): 4.1 mg/kg/day
- Activity (Mus musculus [29]): 65%
- Activity (Rattus norvegicus [18]): 50.5 mg/dL

Structure (SMILES): Cc1c(C)c2c(c(C)c1OCc1ccccc1)C(CN1CCC[C@H]1COc1ccc(/C=C3\SC(=O)NC3=O)cc1)C(C)(C)O2 (stereo partly specified)
- Activity (Mus musculus [33]): 8 mM

Structure (SMILES): COc1cc(/C=C2\SC(=O)NC2=O)cc(OC)c1OC
- MIC (Escherichia coli [12]): 250 µg/mL (≈ 847 µM)
- MIC (Staphylococcus aureus [10]): 200 µg/mL (≈ 677 µM)
